In patent US8633206B2, “Pyrrolo[2,3-D]pyrimidine compounds” (Pfizer Inc., priority 2009, dated 2014):

Columns and labels:
Assay type in all cases: biochemical
JAK1 = JAK1 (Homo sapiens (Human), UniProt P23458); assay: JAK enzymatic assay (peptide mobility shift), JAK1; details: recombinant JAK1 20 nM, IRS-1 peptide, 240 minutes
JAK3 = JAK3 (Homo sapiens (Human), UniProt P52333); assay: JAK enzymatic assay (peptide mobility shift), JAK3; details: recombinant JAK3 1 nM, JAKtide peptide, 90 minutes
JAK2 = JAK2 (Homo sapiens (Human), UniProt O60674); assay: JAK enzymatic assay (peptide mobility shift), JAK2; details: recombinant JAK2 2 nM, JAKtide peptide, 150 minutes
Chain of JAK2 (O60674 808-1132): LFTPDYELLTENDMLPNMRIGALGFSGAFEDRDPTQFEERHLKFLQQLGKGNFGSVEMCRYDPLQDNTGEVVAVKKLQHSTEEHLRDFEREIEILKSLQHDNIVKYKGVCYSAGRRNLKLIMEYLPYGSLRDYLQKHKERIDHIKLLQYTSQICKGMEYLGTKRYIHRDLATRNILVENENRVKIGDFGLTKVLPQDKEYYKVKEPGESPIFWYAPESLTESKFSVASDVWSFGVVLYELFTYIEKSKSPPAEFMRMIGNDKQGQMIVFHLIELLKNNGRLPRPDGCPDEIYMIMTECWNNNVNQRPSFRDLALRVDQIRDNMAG

Chain of JAK1 (P23458 whole entry): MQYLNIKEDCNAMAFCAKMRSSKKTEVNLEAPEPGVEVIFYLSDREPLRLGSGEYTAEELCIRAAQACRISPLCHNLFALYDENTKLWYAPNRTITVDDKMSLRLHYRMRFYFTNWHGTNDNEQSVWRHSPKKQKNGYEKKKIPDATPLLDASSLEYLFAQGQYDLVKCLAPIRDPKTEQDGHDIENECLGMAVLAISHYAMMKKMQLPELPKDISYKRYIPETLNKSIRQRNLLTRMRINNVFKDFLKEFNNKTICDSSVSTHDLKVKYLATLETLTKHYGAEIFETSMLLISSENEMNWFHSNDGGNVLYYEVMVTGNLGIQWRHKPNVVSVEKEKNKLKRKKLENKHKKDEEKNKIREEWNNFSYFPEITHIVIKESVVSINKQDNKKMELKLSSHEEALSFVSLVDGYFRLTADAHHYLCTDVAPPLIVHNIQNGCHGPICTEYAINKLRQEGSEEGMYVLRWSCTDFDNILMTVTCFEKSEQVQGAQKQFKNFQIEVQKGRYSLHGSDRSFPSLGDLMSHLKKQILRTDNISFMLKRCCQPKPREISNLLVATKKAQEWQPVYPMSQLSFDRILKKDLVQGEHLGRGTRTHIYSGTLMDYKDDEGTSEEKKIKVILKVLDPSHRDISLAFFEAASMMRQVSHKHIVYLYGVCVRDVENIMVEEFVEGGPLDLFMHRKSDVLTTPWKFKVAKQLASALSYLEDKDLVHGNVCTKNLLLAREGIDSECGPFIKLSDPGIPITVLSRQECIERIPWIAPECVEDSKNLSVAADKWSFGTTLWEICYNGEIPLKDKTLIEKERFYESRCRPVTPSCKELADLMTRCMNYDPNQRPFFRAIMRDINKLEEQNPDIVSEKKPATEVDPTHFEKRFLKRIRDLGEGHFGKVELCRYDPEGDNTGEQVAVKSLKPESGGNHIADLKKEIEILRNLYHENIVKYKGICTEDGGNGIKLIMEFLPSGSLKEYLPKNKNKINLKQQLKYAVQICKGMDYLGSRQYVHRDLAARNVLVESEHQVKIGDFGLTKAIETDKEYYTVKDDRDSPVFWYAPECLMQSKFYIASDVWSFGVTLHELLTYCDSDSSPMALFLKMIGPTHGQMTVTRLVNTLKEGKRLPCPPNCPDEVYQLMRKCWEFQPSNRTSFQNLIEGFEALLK
Chain of JAK3 (P52333 781-1124): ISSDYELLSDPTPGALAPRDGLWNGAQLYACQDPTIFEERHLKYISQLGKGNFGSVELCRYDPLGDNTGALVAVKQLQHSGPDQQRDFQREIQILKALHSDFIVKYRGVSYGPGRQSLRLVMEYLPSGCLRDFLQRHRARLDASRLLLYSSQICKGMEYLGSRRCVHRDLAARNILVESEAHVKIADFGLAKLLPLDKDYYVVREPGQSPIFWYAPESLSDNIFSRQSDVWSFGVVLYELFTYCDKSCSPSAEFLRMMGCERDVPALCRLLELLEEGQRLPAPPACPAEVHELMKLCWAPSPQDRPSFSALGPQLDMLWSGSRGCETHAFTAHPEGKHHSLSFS

Row | SMILES | IC50 (JAK1) [nM] | IC50 (JAK3) [nM] | IC50 (JAK2) [nM]
1 | Cc1nnc(C2CCCN(S(=O)(=O)C[C@H]3CC[C@H](N(C)c4ncnc5[nH]ccc45)CC3)C2)o1 (stereo partly drawn) [Example 18, N-methyl-N-[trans-4-({[3-(5-methyl-1,3,4-oxadiazol-2-yl)piperidin-1-yl]sulfonyl}methyl)-cyclohexyl]-7H-pyrrolo-[2,3-d]pyrimidin-4-amine] | 9.75 | 210 | 19.5
2 | CN(c1ncnc2[nH]ccc12)[C@H]1CC[C@H](CS(=O)(=O)N2CCC[C@@](C)(O)C2)CC1 [Example 65, 3-methyl-1-[({trans-4-[methyl(7H-pyrrolo[2,3-d]-pyrimidin-4-yl)amino]-cyclohexyl}methyl)sulfonyl] piperidin-3-ol] | 7.6 | 431 | 40.9
3 | CN(c1ncnc2[nH]ccc12)[C@H]1CC[C@H](CS(=O)(=O)N2CCC(C)(O)CC2)CC1 [Example 23, 4-methyl-1-[({trans-4-[methyl(7H-pyrrolo[2,3-d]pyrimidin-4-yl)amino]-cyclohexyl}methyl)sulfonyl]-piperidin-4-ol] | 7.74 | 243 | 42.1
4 | CN(c1ncnc2[nH]ccc12)[C@H]1CC[C@H](CS(=O)(=O)N2CCC(Cc3ncccn3)CC2)CC1 [Example 46, N-methyl-N-[trans-4-({[4-(pyrimidin-2-ylmethyl)-piperidin-1-yl]sulfonyl}-methyl)cyclohexyl]-7H-pyrrolo[2,3-d]pyrimidin-4-amine] | 5.98 | 167 | 17.7
5 | CN(c1ncnc2[nH]ccc12)[C@H]1CC[C@H](CS(=O)(=O)N2CCC2)CC1 [Example 109, N-{trans-4-[(azetidin-1-ylsulfonyl)methyl]cyclo-hexyl}-N-methyl-7H-pyrrolo[2,3-d]pyrimidin-4-amine] | 14.3 | 289 | 39.4
6 | CNC(=O)C1CCN(S(=O)(=O)C[C@H]2CC[C@H](N(C)c3ncnc4[nH]ccc34)CC2)CC1 [Example 54, N-methyl-1-[({trans-4-[methyl(7H-pyrrolo[2,3-d]-pyrimidin-4-yl)amino]-cyclohexyl}methyl)sulfonyl] piperidine-4-carboxamide] | 22 | 377 | 44.9
7 | CN(c1ncnc2[nH]ccc12)[C@H]1CC[C@H](CS(=O)(=O)N2CCC[C@H](CO)C2)CC1 [Example 62, {1-[({trans-4-[methyl(7H-pyrrolo[2,3-d]pyrimidin-4-yl)amino]cyclohexyl}-methyl)sulfonyl]piperidin-3-yl}methanol] | 2.4 | 233 | 20.1
8 | COCC1CCN(S(=O)(=O)C[C@H]2CC[C@H](N(C)c3ncnc4[nH]ccc34)CC2)CC1 [Example 43, N-[trans-4-({[4-(methoxy-methyl)piperidin-1-yl]-sulfonyl}methyl)-cyclohexyl]-N-methyl-7H-pyrrolo[2,3-d]pyrimidin-4-amine] | 12.8 | 434 | 71
9 | CCCS(=O)(=O)CC1CCCN(S(=O)(=O)C[C@H]2CC[C@H](N(C)c3ncnc4[nH]ccc34)CC2)C1 (stereo partly drawn) [Example 17, N-methyl-N-{trans-4-[({3-[(propylsulfonyl)methyl]-piperidin-1-yl}sulfonyl)-methyl]-cyclohexyl}-7H-pyrrolo[2,3-d]pyrimidin-4-amine] | 6.06 | 745 | 54.7
10 | CN(c1ncnc2[nH]ccc12)[C@H]1CC[C@H](CS(=O)(=O)N2CC[C@@H](CC#N)C2)CC1 [Example 35, {(3S)-1-[({trans-4-[methyl(7H-pyrrolo[2,3-d]pyrimidin-4-yl)amino]cyclohexyl}methyl)-sulfonyl]pyrrolidin-3-yl}acetonitrile] | 11.1 | 447 | 52.6
11 | CN(c1ncnc2[nH]ccc12)[C@H]1CC[C@H](CS(=O)(=O)N2CC[C@H](S(C)(=O)=O)C2)CC1 [Example 76, N-methyl-N-[trans-4-({[3-(methylsulfonyl)pyrrolidin-1-yl]sulfonyl}methyl)-cyclohexyl]-7H-pyrrolo[2,3-d]pyrimidin-4-amine] | 2.98 | 125 | 27.2
12 | CN(c1ncnc2[nH]ccc12)[C@H]1CC[C@H](CS(=O)(=O)N2CC[C@@](O)(c3ccccc3)C2)CC1 [Example 91, 1-[({trans-4-[methyl(7H-pyrrolo[2,3-d]pyrimidin-4-yl)amino]cyclohexyl}-methyl)sulfonyl]-3-phenylpyrrolidin-3-ol] | 1.92 | 76.6 | 10.8
13 | CN(c1ncnc2[nH]ccc12)[C@H]1CC[C@H](CS(=O)(=O)N2CCC[C@@H](OP(=O)(O)O)C2)CC1 [Example 141, (3R)-1-[({trans-4-[methyl(7H-pyrrolo[2,3-d]pyrimidin-4-yl)amino]cyclohexyl}methyl)sulfonyl]piperidin-3-yl dihydrogen phosphate] | 0.0263 | 0.768 | 0.106
14 | CN(c1ncnc2[nH]ccc12)[C@H]1CC[C@H](CS(=O)(=O)N2CC[C@@H](O)[C@@H](O)C2)CC1 [Example 13, (3S,4R)-1-[({trans-4-[methyl(7H-pyrrolo[2,3-d]pyrimidin-4-yl)amino]-cyclohexyl}methyl)sulfonyl]-piperidine-3,4-diol] | 6.99 | 275 | 32
15 | CN(c1ncnc2[nH]ccc12)[C@H]1CC[C@H](CS(=O)(=O)N2CC[C@H](CC#N)C2)CC1 [Example 32, {(3R)-1-[({trans-4-[methyl(7H-pyrrolo[2,3-d]pyrimidin-4-yl)amino]-cyclohexyl}methyl)sulfonyl]-pyrrolidin-3-yl}-acetonitrile] | 3.76 | 355 | 27.3
16 | CN(c1ncnc2[nH]ccc12)[C@H]1CC[C@H](CS(=O)(=O)N2CCCC(C(F)(F)F)C2)CC1 (stereo partly drawn) [Example 6, N-methyl-N-[trans-4-({[3-(trifluoromethyl)piperidin-1-yl]sulfonyl}methyl)-cyclohexyl]-7H-pyrrolo[2,3-d]pyrimidin-4-amine] | 7.25 | 604 | 54.3
17 | CN(c1ncnc2[nH]ccc12)[C@H]1CC[C@H](CS(=O)(=O)N2CCCC(OCC(N)=O)C2)CC1 (stereo partly drawn) [Example 7, 2-({1-[({trans-4-[methyl-(7H-pyrrolo[2,3-d]-pyrimidin-4-yl)amino]-cyclohexyl}methyl)sulfonyl]-piperidin-3-yl}oxy)-acetamide] | 2.96 | 173 | 18.3
18 | CN(c1ncnc2[nH]ccc12)[C@H]1CC[C@H](CS(=O)(=O)N2CC[C@H](CO)C2)CC1 [Example 31, {(3S)-1-[({trans-4-[methyl(7H-pyrrolo[2,3-d]pyrimidin-4-yl)amino]-cyclohexyl}methyl)sulfonyl]-pyrrolidin-3-yl}-methanol] | 2.88 | 200 | 14.4
19 | CN(c1ncnc2[nH]ccc12)[C@H]1CC[C@H](CS(=O)(=O)N2CC[C@@](O)(CSc3ccccn3)C2)CC1 [Example 97, 1-[({trans-4-[methyl(7H-pyrrolo[2,3-d]pyrimidin-4-yl)-amino]cyclohexyl}-methyl)sulfonyl]-3-[(pyridin-2-ylthio)-methyl]pyrrolidin-3-ol] | 1.36 | 85.6 | 13.1
20 | CN(c1ncnc2[nH]ccc12)[C@H]1CC[C@H](CS(=O)(=O)N2CC(O)C2)CC1 [Example 115, 1-[({trans-4-[methyl(7H-pyrrolo[2,3-d]pyrimidin-4-yl)amino]cyclohexyl}-methyl)sulfonyl]azetidin-3-ol] | 10.7 | 303 | 34.4
21 | CN(c1ncnc2[nH]ccc12)[C@H]1CC[C@H](CS(=O)(=O)N2CCN(Cc3ccccn3)CC2)CC1 [Example 123, N-methyl-N-[trans-4-({[4-(pyridin-2-ylmethyl)-piperazin-1-yl]sulfonyl}-methyl)cyclohexyl]-7H-pyrrolo[2,3-d]pyrimidin-4-amine] | 13.7 | 323 | 49.8
22 | CN(c1ncnc2[nH]ccc12)[C@H]1CC[C@H](CS(=O)(=O)N2CCC(C(C)(C)O)CC2)CC1 [Example 47, 2-{1-[({trans-4-[methyl(7H-pyrrolo[2,3-d]pyrimidin-4-yl)amino]cyclohexyl}methyl)-sulfonyl]piperidin-4-yl}propan-2-ol] | 13.5 | 397 | 68.4
23 | CCC1(C(N)=O)CCN(S(=O)(=O)C[C@H]2CC[C@H](N(C)c3ncnc4[nH]ccc34)CC2)CC1 [Example 44, 4-ethyl-1-[({trans-4-[methyl(7H-pyrrolo[2,3-d]-pyrimidin-4-yl)amino]-cyclohexyl}methyl)sulfonyl] piperidine-4-carboxarnide] | 8.01 | 353 | 61.1
24 | CN(c1ncnc2[nH]ccc12)[C@H]1CC[C@H](CS(=O)(=O)N2CC(S(=O)(=O)CC3CC3)C2)CC1 [Example 116, N-{trans-4-[({3-[(cyclopropylmethyl)-sulfonyl]azetidin-1-yl}sulfonyl)methyl]cyclo-hexyl}-N-methyl-7H-pyrrolo[2,3-d]pyrimidin-4-amine] | 10.7 | 298 | 49.9
25 | CN(c1ncnc2[nH]ccc12)[C@H]1CC[C@H](CS(=O)(=O)N2CC[C@H](NC(=O)C(F)(F)F)C2)CC1 [Example 75, 2,2,2-trifluoro-N-{(3S)-1-[({trans-4-[methyl(7H-pyrrolo[2,3-d]pyrimidin-4-yl)amino]cyclohexyl}methyl)-sulfonyl]pyrrolidin-3-yl}acetamide] | 19.1 | 399 | 62.2
26 | CN(c1ncnc2[nH]ccc12)[C@H]1CC[C@H](CS(=O)(=O)N2CCCC(Cc3ccccn3)C2)CC1 (stereo partly drawn) [Example 21, N-methyl-N-[trans-4-({[3-(pyridin-2-ylmethyl)-piperidin-1-yl]sulfonyl}-methyl)cyclohexyl]-7H-pyrrolo[2,3-d]pyrimidin-4-amine] | 11.3 | 592 | 33
